# Measured values published in PMC7007950, “Farrerol Directly Targets GSK-3β to Activate Nrf2-ARE Pathway and Protect EA.hy926 Cells against Oxidative Stress-Induced Injuries” (Oxidative Medicine and Cellular Longevity, 2020).
# pKd: −log10 of the molar value.
# Biological target: T1, glycogen synthase kinase 3β (GSK-3β) (Homo sapiens, UniProt P49841)
# T1 construct: gene GSK3B; recombinant His-tagged GSK-3β
# Assay: BLI on immobilized GSK-3β; also DARTS in lysate and Kinase-Glo inhibition (IC50 […])
# Format: binding
# T1 sequence (P49841 whole entry): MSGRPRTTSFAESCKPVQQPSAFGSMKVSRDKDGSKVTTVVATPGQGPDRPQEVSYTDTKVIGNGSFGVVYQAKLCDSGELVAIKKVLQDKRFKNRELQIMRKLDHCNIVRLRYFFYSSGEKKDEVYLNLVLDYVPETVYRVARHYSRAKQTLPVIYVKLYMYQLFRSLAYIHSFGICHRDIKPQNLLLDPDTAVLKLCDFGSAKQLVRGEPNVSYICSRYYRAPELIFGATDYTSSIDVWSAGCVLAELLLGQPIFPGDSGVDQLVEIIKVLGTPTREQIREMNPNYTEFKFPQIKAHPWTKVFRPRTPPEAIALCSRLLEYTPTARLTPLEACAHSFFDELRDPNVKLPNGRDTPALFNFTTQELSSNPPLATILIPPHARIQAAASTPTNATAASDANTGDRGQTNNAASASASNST
smiles,measurement,value
Cc1c(O)c(C)c2c(c1O)C(=O)C[C@@H](c1ccc(O)cc1)O2 [farrerol],pKd,3.20
